Reference: patent US8476272B2, “Pharmaceutical composition for treatment of type 2 diabetes” (Jiangsu Hengrui Medicine Co., Ltd., priority 2010, dated 2013)

What was measured:
[1] = test system: genetic fatty Wistar rats with diabetes; experiment: 14-day administration to genetic fatty Wistar rats with diabetes: plasma glucose and hemoglobin; assay type: in vivo; details: 14 days, compound A or MK-0431 10 mg/kg/day p.o., metformin 100 mg/kg/day, mean ± SD, n=5-6; for hemoglobin: hemoglobin Al
Description: 14-19 week-old male Wistar rats were divided into 5 groups, 5-6 each group. […] Blood was collected from caudal vein. The plasma glucose and hemoglobin Al were determined respectively with a commercial kit (NC-ROPET, Nippon Chemiphar CO.) by enzyme method.

[2] = test system: genetic fatty Wistar rats with diabetes; experiment: Oral glucose loading test in genetic fatty Wistar rats with diabetes after 7 days of administration; assay type: in vivo; details: phosphates 30 mg/kg/day p.o., metformin 100 mg/kg/day, mean ± SD, n=5
Description: 13-14 week-old male Wistar rats were divided into 5 groups, 5 each group. […] Oral glucosieloading test was conducted immediately after fasting overnight (2 g glucose/kg/5 ml, p.o.). Blood was collected from caudal vein before or 120 minutes and 240 minutes after the test, and plasma glucose was analyzed with enzyme method (Encore Chemical System; Baker).

[3] = 0 min (before glucose load 2 g/kg p.o.)
[4] = 120 min after glucose load 2 g/kg p.o.
[5] = 240 min after glucose load 2 g/kg p.o.

Structure (SMILES)	plasma glucose [1]	hemoglobin [1]	plasma glucose [2, 3] [mg/dL]	plasma glucose [2, 4] [mg/dL]	plasma glucose [2, 5] [mg/dL]
CN(C)C(=N)N=C(N)N [metformin]	327 ± 46	6.1 ± 0.6	119 ± 11	221 ± 62	107 ± 21
COC(=O)c1nc(C(F)(F)F)n2c1CN(C(=O)C[C@H](N)Cc1cc(F)c(F)cc1F)CC2 [Compound A, (R)-7-[3-amino-4-(2,4,5-trifluoro-phenyl)-butyryl]-3-trifluoromethyl-5,6,7,8-tetrahydro-imidazo[1,5-a]pyrazine-1-carboxylic acid methyl ester]	214 ± 50	5.3 ± 0.3			
COC(=O)c1nc(C(F)(F)F)n2c1CN(C(=O)C[C@H](N)Cc1cc(F)c(F)cc1F)CC2 [phosphate of compound A]			103 ± 11	137 ± 17	102 ± 9
